Data reported in patent US11993579B1, “3-(1-(3-(dimethylamino)propyl)-4,5-diphenyl-1h-imidazol-2-yl)pyridin-4-ol as an anti-microbial compound” (KING FAISAL UNIVERSITY, priority 2023, dated 2024).

How the values were obtained:
[1] = test system: E. Coli; test: Anti-microbial activity by agar dilution, E. Coli; format: cell-based; conditions: after 10, 20, 40, and 60 min at all dilutions 1:100, 1:200, 1:400, 1:800
Method: (§1) The antibacterial properties of the synthesized compounds were studied by the method of agar dilution. Test solutions of each compound was prepared in a concentration of 1% using dimethylformamide as a solvent. Then the test solutions were diluted in a physiological solution to obtain the final experimental dilutions of 1:100, 1:200, 1:400, and 1:800. The effect of these substances was compared with furacillin in a controllable study. The testing microbes used were gram positive bacteria St. Aereus, gram negative bacteria E. Coli, and Ps. aeruginosa and Candida albicans fungi. The experiments used for this survey were a meat-pentonlu agar (EPA) for cultivation of bacteria and a Saburo environment for fungi. Each experiment used 1 mL of test solution on each plate for 500 min. Next, 2 drops of emulsified test solution with microbes feel were added. All experimental samples were taken from the agar after 10, 40, 60 minutes in the environment on the basis of Patrk planted. Bacteria were cultivated at a temperature of 37° C. for 1 day and the mushroom was kept in a thermostat for […] at a temperature of 28° C. Then results were checked.

[2] = test system: Candida albicans; test: Anti-microbial activity by agar dilution, Candida albicans; format: cell-based; conditions: after 10, 20, 40, and 60 min at all dilutions 1:100, 1:200, 1:400, 1:800
Method: as §1

[3] = test system: St. Aereus; test: Anti-microbial activity by agar dilution, St. Aereus; format: cell-based; conditions: after 10, 20, 40, and 60 min at all dilutions 1:100, 1:200, 1:400, 1:800
Method: as §1

[4] = test system: Ps. Aeroqonaza; test: Anti-microbial activity by agar dilution, Ps. Aeroqonaza; format: cell-based, Ps. aeruginosa; conditions: after 10, 20, 40, and 60 min at all dilutions 1:100, 1:200, 1:400, 1:800
Method: as §1

melting point: 137 to 139 °C
SMILES: CN(C)CCCn1c(-c2cnccc2O)nc(-c2ccccc2)c1-c1ccccc1 [3-(1-(3-(dimethylamino)propyl)-4,5-diphenyl-1H-imidazol-2-yl)pyridin-4-ol]
inhibition activity, E. Coli (in words) [1]: showed the most inhibition activity
inhibition activity, Candida albicans (in words) [2]: showed the most inhibition activity
inhibition activity, St. Aereus (in words) [3]: showed the most inhibition activity
inhibition activity, Ps. aeruginosa (in words) [4]: showed the most inhibition activity
